Laboratory results published in publication PMC9958325 (Nature Communications, 2023).
Values joined by “and” are separate entries in the source; they are usually repeats but may differ in a detail not shown here. Equal entries are not always repeated. Where two headings read alike, the source gives them in different places.

Assays:
[1] = test system: SARS-CoV-2 K1734/δ; assay: microbe, parasite or virus in culture; assay type: cell-based
[2] = test system: SARS-CoV-2 QHN001/α; assay: microbe, parasite or virus in culture; assay type: cell-based
[3] = test system: SARS-CoV-2 TY8-612/β; assay: microbe, parasite or virus in culture; assay type: cell-based
[4] = test system: SARS-CoV-2 5356/κ; assay: microbe, parasite or virus in culture; assay type: cell-based
[5] = test system: SARS-CoV-2 TY7-501/γ; assay: microbe, parasite or virus in culture; assay type: cell-based
[6] = test system: SARS-CoV-2 Delta, BA.1 and BA.2 variants; set-up: species or system hACE2 knock-in mice; conditions: mouse, in vivo, ip
[7] = test system: SARS-CoV-2 Delta, BA.1 and BA.2 variants; set-up: species or system hACE2 knock-in mice; conditions: mouse, in vivo
[8] = test system: SARS-CoV-2^WK-521; assay: microbe, parasite or virus in culture; assay type: cell-based; conditions: read-out: EC50 in cell-based assays
[9] = target: Glycine-added M^pro (Severe acute respiratory syndrome coronavirus 2, UniProt P0DTD1)
[10] = read-out: EC50 δ, individual assays
[11] = read-out: EC50 α, individual assays
[12] = read-out: EC50 β, individual assays
[13] = read-out: EC50 κ, individual assays
[14] = read-out: EC50 γ, individual assays
[15] = read-out: EC50 against QHN001/α
[16] = read-out: EC50 against TY8-612/β
[17] = read-out: EC50 against Y7-501/γ

SMILES | EC50 [1, 10] | EC50 [2, 11] | EC50 [3, 12] | EC50 [4, 13] | EC50 [5, 14] | EC50 ([1]; read-out: EC50 δ, Average) [nM] | EC50 [2, 15] [nM] | EC50 ([2]; read-out: EC50 α, Average) [nM] | Effect on lung virus titers (in words) [6] | EC50 [3, 16] [nM] | EC50 ([3]; read-out: EC50 β, Average) [nM] | EC50 ([4]; read-out: EC50 κ, Average) [nM] | EC50 [5, 17] [nM] | EC50 ([5]; read-out: EC50 γ, Average) [nM] | also measured
CC(C)(C)[C@H](NC(=O)C(F)(F)F)C(=O)N1C[C@H]2[C@@H]([C@H]1C(=O)N[C@H](C#N)C[C@@H]1CCNC1=O)C2(C)C [Nirmatrelvir, reference compound] | 1420 nM and 1570 nM | 1420 nM | 1700 nM and 1230 nM | 1650 nM and 2270 nM and 1060 nM | 2200 nM and 2780 nM | – | – | – | – | – | – | – | – | – | EC50 ([1]; Severe acute respiratory syndrome coronavirus 2, Vero C1008, read-out: EC50 against K1734/δ): 1500 ± 78 nM; EC50 ([1]; Severe acute respiratory syndrome coronavirus 2, Vero C1008, read-out: EC50 δ, individual assays): 1510 nM; EC50 ([2]; Severe acute respiratory syndrome coronavirus 2, Vero C1008, read-out: EC50 against QHN001/α): 1980 ± 559 nM; EC50 ([2]; Severe acute respiratory syndrome coronavirus 2, Vero C1008, read-out: EC50 α, Average): 1980 nM; EC50 ([2]; Severe acute respiratory syndrome coronavirus 2, Vero C1008, read-out: EC50 α, individual assays): 2540 nM; EC50 ([3]; Severe acute respiratory syndrome coronavirus 2, Vero C1008, read-out: EC50 against TY8-612/β): 1500 ± 240 nM; EC50 ([3]; Severe acute respiratory syndrome coronavirus 2, Vero C1008, read-out: EC50 β, Average): 1500 nM; EC50 ([3]; Severe acute respiratory syndrome coronavirus 2, Vero C1008, read-out: EC50 β, individual assays): 1560 nM; EC50 ([4]; Severe acute respiratory syndrome coronavirus 2, Vero C1008, read-out: EC50 against 5356/k): 1660 ± 606 nM; EC50 ([4]; Severe acute respiratory syndrome coronavirus 2, Vero C1008, read-out: EC50 κ, Average): 1660 nM; EC50 ([5]; Severe acute respiratory syndrome coronavirus 2, Vero C1008, read-out: EC50 against Y7-501/γ): 2490 ± 292 nM; EC50 ([5]; Severe acute respiratory syndrome coronavirus 2, Vero C1008, read-out: EC50 γ, Average): 2490 nM; EC50 ([5]; Severe acute respiratory syndrome coronavirus 2, Vero C1008, read-out: EC50 γ, individual assays): 2500 nM
CC(C)(C)[C@H](NC(=O)C(F)(F)F)C(=O)N1C[C@H]2[C@@H]([C@H]1C(=O)N[C@@H](C[C@@H]1CCNC1=O)C(=O)c1nc3c(F)cccc3s1)C2(C)C [TKB245] | 27.6 nM and 33.6 nM | 90 nM and 20 nM and 15.8 nM | 19 nM and 36 nM | 19.2 nM and 22.4 nM | 10 nM and 58.2 nM and 100 nM | 30.4 | 42 ± 42 | 42 | considerably reduced titers of both variants in lung | 28 ± 9 | 28.4 | 20.6 | 56 ± 45 | 56.1 | Chest micro-CT images vs vehicle control [7]: No relevant differences were; Lung immunohistochemistry, SARS-CoV-2 nucleocapsid protein vs vehicle group [7]: no relevant change in number; EC50 [8]: ~30 nM
CC(C)(C)[C@H](NC(=O)C(F)(F)F)C(=O)N1C[C@H]2[C@@H]([C@H]1C(=S)N[C@@H](C[C@@H]1CCNC1=O)C(=O)c1nc3c(F)cccc3s1)C2(C)C [TKB248] | 270 nM and 311 nM and 240 nM | 300 nM and 299 nM | 290 nM and 291 nM and 282 nM | 215 nM and 145 nM | 288 nM and 165 nM | 274 | 300 ± 1 | 300 | exerted comparable efficacy against both Omicron BA.1 and BA.2 variants | 287 ± 5 | 288 | 180 | 228 ± 61 | 228 | EC50 ([1]; read-out: EC50 against K1734/δ): 273 ± 36 nM; Peak ratio, Dimer-1X compound [9]: 9.9%; Peak ratio, Dimer-2X compound [9]: 28.4%; EC50 ([4]; read-out: EC50 against 5356/k): 180 ± 35 nM
